Active and inactive are the calls of the source. The rule behind the calls is not given here.
Tests used:
Bemisia tabaci [1] = assay: Insecticidal activity against nymph stage of Bemisia tabaci (sweet potato whitefly) infested cotton leaves assessed as increase in mortality at 0.375 mg ai/seed measured 2 weeks post sowing to 9 weeks under field conditions relative to untreated control; type: functional, organism-based
Bemisia tabaci [2] = assay: Insecticidal activity against adult Bemisia tabaci (sweet potato whitefly) infested cotton leaves assessed as increase in mortality at 0.375 mg ai/seed measured 2 weeks post sowing to 9 weeks under field conditions relative to untreated control; type: functional, organism-based
Bemisia tabaci [3] = assay: Insecticidal activity against nymph stage of Bemisia tabaci (sweet potato whitefly) infested cotton leaves assessed as increase in mortality at 0.375 mg ai/seed measured 10 to 40 days post germination under green house conditions relative to untreated control; type: functional, organism-based
Bemisia tabaci [4] = assay: Insecticidal activity against adult Bemisia tabaci (sweet potato whitefly) infested cotton leaves assessed as increase in mortality at 0.375 mg ai/seed measured 10 to 40 days post germination under green house conditions relative to untreated control; type: functional, organism-based
Bemisia tabaci [5] = assay: Insecticidal activity against adult Bemisia tabaci (sweet potato whitefly) infested cotton leaves assessed as effect on laid eggs at 0.375 mg ai/seed measured 10 to 40 days post germination under laboratory conditions relative to untreated control; type: functional, organism-based
Bemisia tabaci [6] = assay: Insecticidal activity against adult Bemisia tabaci (sweet potato whitefly) infested cotton leaves assessed as decrease in egg deposition at 0.375 mg ai/seed measured 10 to 40 days post germination under laboratory conditions relative to untreated control; type: functional, organism-based
Bemisia tabaci [7] = assay: Insecticidal activity against nymph stage of Bemisia tabaci (sweet potato whitefly) infested cotton leaves assessed as mortality at 0.375 mg ai/seed measured 10 to 40 days post germination under laboratory conditions relative to untreated control; type: functional, organism-based
Bemisia tabaci [8] = assay: Insecticidal activity against adult Bemisia tabaci (sweet potato whitefly) infested cotton leaves assessed as increase in mortality at 0.375 mg ai/seed measured 10 to 40 days post germination under laboratory conditions relative to untreated control; type: functional, organism-based
Bemisia tabaci [9] = assay: Insecticidal activity against adult Bemisia tabaci (sweet potato whitefly) infested cotton leaves assessed as decrease in egg production at 0.375 mg ai/seed measured 10 to 40 days post germination under green house conditions relative to untreated control; type: functional, organism-based
Bemisia tabaci [10] = assay: Insecticidal activity against nymph stage of Bemisia tabaci (sweet potato whitefly) infested cotton leaves assessed as increase in mortality at 0.342 mg ai/seed measured 2 weeks post sowing to 9 weeks under field conditions relative to untreated control; type: functional, organism-based
Bemisia tabaci [11] = assay: Insecticidal activity against adult Bemisia tabaci (sweet potato whitefly) infested cotton leaves assessed as increase in mortality at 0.342 mg ai/seed measured 2 weeks post sowing to 9 weeks under field conditions relative to untreated control; type: functional, organism-based
Cotyledon [12] = assay: Drug uptake in Gossypium hirsutum (cotton) cotyledon at 0.342 mg ai/seed measured 10 days post germination under green house conditions; type: ADME; settings: in vivo, other, 240 h
Bemisia tabaci [13] = assay: Insecticidal activity against adult Bemisia tabaci (sweet potato whitefly) infested cotton leaves assessed as decrease in egg production at 0.342 mg ai/seed measured 10 to 40 days post germination under green house conditions relative to untreated control; type: functional, organism-based
Bemisia tabaci [14] = assay: Insecticidal activity against nymph stage of Bemisia tabaci (sweet potato whitefly) infested cotton leaves assessed as increase in mortality at 0.342 mg ai/seed measured 10 to 40 days post germination under green house conditions relative to untreated control; type: functional, organism-based
Bemisia tabaci [15] = assay: Insecticidal activity against adult Bemisia tabaci (sweet potato whitefly) infested cotton leaves assessed as increase in mortality at 0.342 mg ai/seed measured 10 to 40 days post germination under green house conditions relative to untreated control; type: functional, organism-based
Bemisia tabaci [16] = assay: Insecticidal activity against adult Bemisia tabaci (sweet potato whitefly) infested cotton leaves assessed as decrease in egg deposition at 0.342 mg ai/seed measured 10 to 40 days post germination under laboratory conditions relative to untreated control; type: functional, organism-based
Bemisia tabaci [17] = assay: Insecticidal activity against nymph stage of Bemisia tabaci (sweet potato whitefly) infested cotton leaves assessed as increase in mortality at 0.342 mg ai/seed measured 10 to 40 days post germination under laboratory conditions relative to untreated control; type: functional, organism-based
Bemisia tabaci [18] = assay: Insecticidal activity against adult Bemisia tabaci (sweet potato whitefly) infested cotton leaves assessed as increase in mortality at 0.342 mg ai/seed measured 10 to 40 days post germination under laboratory conditions relative to untreated control; type: functional, organism-based
Bemisia tabaci [19] = assay: Insecticidal activity against adult Bemisia tabaci (sweet potato whitefly) infested cotton leaves assessed as effect on laid eggs at 0.342 mg ai/seed measured 10 to 40 days post germination under laboratory conditions relative to untreated control; type: functional, organism-based
Leaf [20] = assay: Drug uptake in Gossypium hirsutum (cotton) leaf at 0.342 mg ai/seed measured 10 days post germination under green house conditions; type: ADME; settings: in vivo, other, 240 h
Cotyledon [21] = assay: Drug uptake in Gossypium hirsutum (cotton) cotyledon at 0.375 mg ai/seed measured 10 days post germination under green house conditions; type: ADME; settings: in vivo, other, 240 h
Leaf [22] = assay: Drug uptake in Gossypium hirsutum (cotton) leaf at 0.375 mg ai/seed measured 10 days post germination under green house conditions; type: ADME; settings: in vivo, other, 240 h

O=[N+]([O-])/N=C1\NCCN1Cc1ccc(Cl)nc1
Activity (Bemisia tabaci [1]): Active
Activity (Bemisia tabaci [2]): Active
Activity (Bemisia tabaci [3]): Active
Activity (Bemisia tabaci [4]): Active
Activity (Bemisia tabaci [5]): inactive
Activity (Bemisia tabaci [6]): Active
Activity (Bemisia tabaci [7]): Active
Activity (Bemisia tabaci [8]): Active
Activity (Bemisia tabaci [9]): Active

CN1COCN(Cc2cnc(Cl)s2)/C1=N\[N+](=O)[O-] [THIAMETHOXAM]
Activity (Bemisia tabaci [10]): Active
Activity (Bemisia tabaci [11]): Active
Drug uptake (Cotyledon [12]): Active
Activity (Bemisia tabaci [13]): Active
Activity (Bemisia tabaci [14]): Active
Activity (Bemisia tabaci [15]): Active
Activity (Bemisia tabaci [16]): Active
Activity (Bemisia tabaci [17]): Active
Activity (Bemisia tabaci [18]): Active
Activity (Bemisia tabaci [19]): inactive
Drug uptake (Leaf [20]): Active

O=[N+]([O-])NC1=NCCN1Cc1ccc(Cl)nc1 [IMIDACLOPRID]
Drug uptake (Cotyledon [21]): Active
Drug uptake (Leaf [22]): Active
